Results taken from article PMC6522510 (Nature Communications, 2019).
Counter-ions that a name gives are not always drawn. Like-named read-outs stand apart in the source and are kept apart here.

Key:
Parameters in all cases: species or system AML cell lines (8); Primary HTS, single concentration about 10 uM, Cell Titer Glo viability; log10 luminescence, per cent inhibition relative to cycloheximide control
Settings in all cases: 72 h, relative to cycloheximide control, log10 luminescence, inhibitor
CHRF288-11 = tested on: CHRF288-11
MV4-11 = tested on: MV4-11
CMS = tested on: CMS
M07e = tested on: M07e
CMK = tested on: CMK
ML-2 = tested on: ML-2
U937 = tested on: U937
MOLM-13 = tested on: MOLM-13

Compound | CHRF288-11 %inh (CHRF288-11) | MV4-11 %inh (MV4-11) | CMS %inh (CMS) | M07e %inh (M07e) | CMK %inh (CMK) | ML-2 %inh (ML-2) | U937 %inh (U937) | MOLM-13 %inh (MOLM-13) | CHRF288-11 %inh (CHRF288-11; CHRF288-11 %inh, 10 µM) | MV4-11 %inh (MV4-11; MV4-11 %inh, 10 µM) | CMS %inh (CMS; CMS %inh, 10 µM) | M07e %inh (M07e; M07e %inh, 10 µM) | CMK %inh (CMK; CMK %inh, 10 µM) | ML-2 %inh (ML-2; ML-2 %inh, 10 µM) | U937 %inh (U937; U937 %inh, 10 µM) | MOLM-13 %inh (MOLM-13; MOLM-13 %inh, 10 µM)
CCN(CC)C(=O)N1CCN(C)CC1 [SJ000285736-4, DIETHYLCARBAMAZINE CITRATE] | -2.146% | 2.119% | -4.008% | -3.005% | 2.446% | -1.11% | 2.79% | 1.95% |  |  |  |  |  |  |  | 
O=C(O)c1cc(-c2ccc(F)cc2F)ccc1O [SJ000285738-4, DIFLUNISAL] | -4.662% | 3.937% | 0.6702% | 2.006% | -0.9892% | -0.2454% | 4.296% | 1.208% |  |  |  |  |  |  |  | 
C[C@H]1O[C@@H](O[C@H]2[C@@H](O)C[C@H](O[C@H]3[C@@H](O)C[C@H](O[C@H]4CC[C@@]5(C)[C@H](CC[C@@H]6[C@@H]5C[C@@H](O)[C@]5(C)[C@@H](C7=CC(=O)OC7)CC[C@]65O)C4)O[C@@H]3C)O[C@@H]2C)C[C@H](O)[C@@H]1O [SJ000285739-5, DIGOXIN] |  |  |  |  |  |  |  |  | 126.2% | 85.53% | 110.4% | 115.6% | 94.03% | 70.4% | 89.45% | 106.4%
C[C@H]1O[C@@H](O[C@H]2[C@@H](O)C[C@H](O[C@H]3[C@@H](O)C[C@H](O[C@H]4CC[C@@]5(C)[C@H](CC[C@@H]6[C@@H]5C[C@@H](O)[C@]5(C)[C@@H](C7=CC(=O)OC7)CC[C@]65O)C4)O[C@@H]3C)O[C@@H]2C)C[C@H](O)[C@@H]1O [SJ000285739-6, DIGOXIN] |  |  |  |  |  |  |  |  | 118.6% | 80.5% | 96.75% | 102.6% | 86.52% | 63.97% | 81.18% | 91.77%
CN(C)CCOC(C)(c1ccccc1)c1ccccn1 (centres unmarked) [SJ000285751-7, DOXYLAMINE SUCCINATE] | 11.69% | -5.123% | -0.1312% | 1.23% | -1.167% | -0.5397% | -1.083% | 4.161% |  |  |  |  |  |  |  | 
C[C@]12CC[C@@H]3c4ccc(O)cc4CC[C@H]3[C@@H]1CCC2=O [SJ000285760-7, ESTRONE] |  |  |  |  |  |  |  |  | -1.204% | 2.184% | 0.8051% | 1.639% | 0.6093% | 0.07519% | 0.9734% | -0.4054%
C[C@]12CC[C@@H]3c4ccc(O)cc4CC[C@H]3[C@@H]1CCC2=O [SJ000285760-8, ESTRONE] |  |  |  |  |  |  |  |  | 3.613% | 1.151% | -1.181% | 2.553% | -1.298% | 0.7014% | -0.6937% | -0.7843%
C=C(CC)C(=O)c1ccc(OCC(=O)O)c(Cl)c1Cl [SJ000285761-4, ETHACRYNIC ACID] | 13.52% | 1.71% | -0.1029% | 4.659% | 27.12% | 6.312% | 4.395% | 7.494% |  |  |  |  |  |  |  | 
CCc1cc(C(N)=S)ccn1 [SJ000285764-4, ETHIONAMIDE] | 8.533% | -3.503% | -3.091% | 0.2673% | -7.383% | 0.2945% | -1.304% | -0.3958% |  |  |  |  |  |  |  | 
CC(=O)OCC(=O)[C@@]12OC(C)(C)O[C@@H]1C[C@H]1[C@@H]3C[C@H](F)C4=CC(=O)C=C[C@]4(C)[C@@]3(F)[C@@H](O)C[C@@]12C [SJ000285768-4, FLUOCINONIDE] | 0.7625% | 1.473% | 8.496% | 4.323% | 3.895% | 0.7594% | 4.65% | 6.203% |  |  |  |  |  |  |  | 
Cc1ccc(C)c(OCCCC(C)(C)C(=O)O)c1 [SJ000285775-4, GEMFIBROZIL] |  |  |  |  |  |  |  |  | -1.527% | 1.327% | 6.72% | 3.732% | 2.032% | -0.7985% | -0.006863% | 2.26%
Cc1ccc(C)c(OCCCC(C)(C)C(=O)O)c1 [SJ000285775-5, GEMFIBROZIL] |  |  |  |  |  |  |  |  | 15.66% | 21.39% | 12.02% | 4.331% | 52.47% | 5.256% | 12.09% | 7.787%
N=C(N)NCCN1CCCCCCC1 [SJ000285779-4, GUANETHIDINE SULFATE] | -6.834% | -2.801% | -3.451% | 0.2704% | -2.691% | 1.503% | -2.581% | -0.2658% |  |  |  |  |  |  |  | 
NS(=O)(=O)c1cc2c(cc1Cl)NCNS2(=O)=O [SJ000285785-7, HYDROCHLOROTHIAZIDE] | 2.834% | 1.232% | 1.584% | -2.196% | 2.395% | 4.295% | -0.1321% | 5.809% |  |  |  |  |  |  |  | 
CCCCCC(=O)O[C@]1(C(C)=O)CC[C@H]2[C@@H]3CCC4=CC(=O)CC[C@]4(C)[C@H]3CC[C@@]21C [SJ000285789-3, HYDROXYPROGESTERONE CAPROATE] | -3.09% | -1.131% | -0.655% | 0.1043% | 2.985% | -1.962% | 3.003% | 1.659% |  |  |  |  |  |  |  | 
CC(=O)Nc1nnc(S(N)(=O)=O)s1 [SJ000285803-7, ACETAZOLAMIDE] | 0.8463% | 1.807% | 0.5025% | -1.461% | 2.601% | -2.151% | -0.874% | 3.554% |  |  |  |  |  |  |  | 
